Results taken from paper PMC5454942, “The Potential of Triterpenoids from Loquat Leaves (Eriobotrya japonica) for Prevention and Treatment of Skin Disorder” (International Journal of Molecular Sciences, 2017).
Values after ≈ are worked out from the molar mass of the structure shown. Values joined by “and” are separate entries in the source; they are usually repeats but may differ in a detail not shown here. Identical values can stand only once.

Tests used:
[1] = test system: RBL-2H3 cells; experiment: Cell viability of RBL-2H3 cells (parallel MTT); type: cell-based, rat; conditions: 25 μg/ml, RBL-2H3 cells
Protocol: (§1) The anti-allergy assay was based mostly on the methods described by Zhu et al. and Yun et al. with slight modification. Rat basophilic leukemia (RBL-2H3) cells were obtained from the Riken Bio-resource Center Cell Bank (Tsukuba, Japan). RBL-2H3 cells were incubated in EMEM medium containing 10% FBS and 1% antibiotics–antimycotics at 37 °C. The cells were seeded on a 96-well plate (2 × 10^5 cells/well). After 24 h of incubation, the medium was supplemented with 0.5 μg/mL anti-DNP (dinitrophenol) mouse immunoglobulin E (IgE) (Sigma-Aldrich). After an additional 24 h of incubation, the medium was replaced with 100 μL of Tyrode buffer. The sample dissolved in DMSO (<0.5% per well) was added, and the cell plate was incubated again for 30 min, then replaced with 100 μL of tyrode buffer containing 50 μg/mL DNP-bovine serum albumin (BSA) (Invitrogen, Carlsbad, CA, USA). After 1 h of incubation, 50 μL of the supernatant was collected from each well and mixed with 50 μL of substrate solution (p-nitrophenyl-N-acetyl-β-glucosaminide, 2 mM; Sigma-Aldrich) in a new 96-well plate. The mixture was incubated at room temperature on a shaker for 3 h. Finally, 100 μL of stop solution was added, and the absorbance was read at 405 nm. A parallel MTT experiment was performed to measure the cell viability. The MTT experiment was done exactly as described.

[2] = test system: NHDF cells; experiment: Skin type I collagen synthesis promoting assay (ELISA, with MTT); type: cell-based, human; conditions: fold of control
Protocol: The assay for measuring the promotion of skin collagen synthesis was described by Kishikawa et al.. Adult NHDF cells (Lonza, Tokyo) were routinely maintained in 10% FBS and 1% antibiotic-antimycotic (Invitrogen) in Dulbecco’s modified Eagle’s medium (DMEM, Wako). After growing to confluence, cells at a density of 5 × 10^3 cells/well were seeded on 96-well plates for 24 h before the treatment. The medium was replaced with a mixture of 1 μL of sample solution (DMSO < 0.5% per well) and 99 μL of DMEM supplemented with 0.5% FBS. After 72 h of cultivation, the amount of collagen in the medium was measured using a human type I collagen enzyme-linked immunosorbent assay (ELISA) kit (ACEL, Kanagawa, Japan). The amount of collagen production was calculated using a standard curve prepared by measurement by the same ELISA. The cells remaining in the 96-well plate were subjected to an MTT assay. Ascorbic acid (100 μM, Wako) was used as a positive control.

[3] = test system: B16 melanoma cells; experiment: Anti-melanogenesis assay (melanin content); type: cell-based, mouse; conditions: for Inhibition rate (100% − melanin synthesis): B16 cells; for IC50 melanin / IC50: B16 melanoma cells; for IC50: read-out: IC50 (melanin synthesis)
Protocol: (§2) This assay was performed as described by Arung et al.. The mouse melanoma cell line B16 was obtained from the Riken Bioresource Center Cell Bank (Tsukuba, Japan). The B16 melanoma cells were maintained in Eagle’s Minimal Essential Medium (EMEM, Nissui Chemical, Tokyo) supplemented with 10% (v/v) fetal bovine serum (FBS; Gibco, Carlsbad, CA, USA) and 0.09 mg/mL theophylline (Sigma-Aldrich, St. Louis, MO, USA). […] After 24 h, test samples were dissolved in DMSO (<0.2% per well) and sample solution were added to each well. Arbutin (Tokyo Kasei Kogyo, Tokyo) was used as a positive control. The cells were incubated for an additional 48 h, and then the medium was replaced with fresh medium containing each sample again. After 24 h, the melanin content and the cell viability were measured using a microplate reader (BioTek-ELX800, BioTek Instruments, Winooski, VT, USA) at 405 nm and 570 nm, respectively. Cell viability was measured using the MTT (3-(4,5-dimethylthiazol-2-yl)-2,5-diphenyltetrazolium bromide) method.

[4] = test system: B16 melanoma cells; experiment: Cell viability of B16 melanoma cells (MTT); conditions: for Inhibition rate (100% − cell viability): B16 cells; for CC50 cell viability / CC50: B16 melanoma cells, MTT; for CC50: read-out: CC50 (cell viability)
Protocol: as §2

[5] = test system: Propionibacterium acnes; experiment: Anti-bacterial assay (growth inhibition, MIC/MBC by broth microdilution); type: cell-based; conditions: for Inhibition Rate (P. acnes growth): concentration 100 μg/mL; for activity against P. acnes (in words): at their maximum solubility
Protocol: The antibacterial assay was based mostly on the methods described by Tanaka et al. with slight modification. Propionibacterium acne (NBRC 107605) was used for the antibacterial assay. A single colony of the test strain was taken and 5 mL of Gifu anaerobic medium (GAM) broth (Nissui, Tokyo) was added to it. This culture was incubated at 37 °C for 30 h. It was then added to the bacterial suspension to prepare a bacterial concentration at 10^5 CFU/mL. The bacterial solution was used for the subsequent antibacterial assay. Each compound was dissolved in DMSO, and benzalkonium chloride (Wako) was used as a positive control. The plate was incubated at 37 °C for 30 h. Finally, bacterial growth was measured by a microplate reader at 630 nm. The MIC and MBC were evaluated by the standard broth microdilution method.

[6] = test system: RBL-2H3 cells; experiment: β-hexosaminidase release from IgE-stimulated RBL-2H3 mast cells; type: cell-based, rat; conditions: 25 μg/mL
Protocol: as §1

SMILES | Cell viability [1] [%] | CP/CV value (collagen production %/cell viability %) ([2]; 5 μg/mL) | Inhibition rate (100% − melanin synthesis) ([3]; 1 μg/ml) [%] | Inhibition rate (100% − melanin synthesis) ([3]; 2.5 μg/ml) [%] | Inhibition rate (100% − melanin synthesis) ([3]; 5 μg/ml) [%] | Inhibition rate (100% − melanin synthesis) ([3]; 10 μg/ml) [%] | IC50 melanin [3] [µg/mL] | IC50 [3] [µM] | Inhibition rate (100% − cell viability) ([4]; 1 μg/ml) [%] | Inhibition rate (100% − cell viability) ([4]; 2.5 μg/ml) [%] | Inhibition rate (100% − cell viability) ([4]; 5 μg/ml) [%] | Inhibition rate (100% − cell viability) ([4]; 10 μg/ml) [%] | CC50 cell viability [4] [µg/mL] | CC50 [4] [µM] | Inhibition Rate (P. acnes growth) [5] | Inhibition Rate (β-hexosaminidase release) [6] [%] | CP/CV value (collagen production %/cell viability %) ([2]; 10 μg/mL) | activity against P. acnes (in words) [5] | CP/CV value (collagen production %/cell viability %) ([2]; 1 μg/mL) | other results
COC(=O)[C@]12CCC(C)(C)C[C@@H]1C1=CC[C@@H]3[C@@]4(C)C[C@@H](O)[C@H](O)C(C)(C)C4CC[C@@]3(C)[C@]1(C)CC2 (stereo partly shown) [Compound 5, Methyl maslinate] | 105.8 ± 1.1 | 1.2 | 0.0 ± 4.4 | 1.6 ± 0.6 | 44.8 ± 4.3 | 68.2 ± 0.6 | 6.2 (≈ 12.7 µM) | 12.8 | 4.7 ± 8.1 | 1.3 ± 5.2 | 12.1 ± 8.6 | 75.9 ± 0.5 | 8.4 (≈ 17.3 µM) | 17.5 | – (no inhibition) | 8.5 ± 9.5 | – | – | – | –
COC(=O)[C@]12CC[C@@H](C)[C@H](C)[C@H]1C1=CC[C@@H]3[C@@]4(C)C[C@@H](O)[C@H](O)C(C)(C)[C@@H]4CC[C@@]3(C)[C@]1(C)CC2 [Compound 6, methyl corosolate] | 97.6 ± 14.1 | 2.4 | 0.0 ± 1.9 | 2.8 ± 4.5 | 32.7 ± 1.5 | 63.5 ± 2.7 | 7.8 (≈ 16 µM) | 16.1 | 4.5 ± 13.7 | 10.5 ± 10.9 | 15.4 ± 5.1 | 59.4 ± 7.0 | 9.1 (≈ 18.7 µM) | 18.7 | 77.9 ± 1.6% | 2.4 ± 14.1 | 3.4 and 3.6 | active | – | –
C[C@H]1[C@H](C)CC[C@]2(C(=O)O)CC[C@]3(C)C(=CC[C@@H]4[C@@]5(C)CCC(=O)C(C)(C)[C@@H]5CC[C@]43C)[C@H]12 [Compound 13, 3-oxours-12-en-28-oic acid] | 85.6 ± 4.2 | 1.2 | 41.0 ± 2.1 | 39.7 ± 0.6 | 45.5 ± 2.7 | 52.9 ± 0.6 | 8.1 (≈ 17.8 µM) | 18 | 39.1 ± 2.6 | 42.7 ± 2.1 | 51.5 ± 3.7 | 80.3 ± 3.0 | 4.0 (≈ 8.8 µM) | 8.9 | – (no inhibition) | – | 1.4 | – | 1.2 | Inhibition rate (100% − melanin synthesis) ([3]; 0.5 μg/ml): 37.4 ± 1.1%
C[C@@H]1CC[C@]2(C(=O)O)CC[C@]3(C)C(=CC[C@@H]4[C@@]5(C)CCC(=O)C(C)(C)[C@@H]5[C@H](O)C[C@]43C)[C@@H]2[C@]1(C)O [Compound 14, 6β,19-dihydroxyurs-12-en-3-oxo-28-oic acid] | 66.8 ±11.1 | 1.4 | 6.9 ± 1.8 | 15.8 ± 1.8 | 39.5 ± 3.1 | 67.3 ± 1.4 | 7.2 (≈ 14.8 µM) | 14.8 | 2.5 ± 8.3 | 1.2 ± 9.7 | 44.1 ± 0.4 | 69.1 ± 10.0 | 5.3 (≈ 10.9 µM) | 10.9 | 87.6 ± 7.4% | – | 1.1 | active | 1.2 | –
C[C@@H]1CC[C@]2(C(=O)O)CC[C@]3(C)C(=CC[C@@H]4[C@@]5(C)C[C@@H](O)C(=O)C(C)(C)[C@@H]5CC[C@]43C)[C@@H]2[C@]1(C)O [Compound 15, 2α, 19α-dihydroxy-3-oxo-12-ursen-28-oic acid] | 102.1 ± 2.2 | 1.1 | – | – | – | 24.2 ± 1.0 | > 20.0 | > 42.3 | – | – | 5.6 ± 4.6 | 11.4 ± 3.9 | > 20.0 | > 42.3 | – (no inhibition) | 0.9 ± 0.0 | – | – | – | Inhibition rate (100% − cell viability) ([4]; 20 μg/ml): 26.4 ± 1.4%
